Data taken from patent US9321791B2, “8-[3-amino-piperidin-1-yl]-xanthines, the preparation thereof and their use as pharmaceutical compositions” (Boehringer Ingelheim International GmbH, priority 2002, dated 2016).

System: rats
Assay: Tolerability after oral administration to rats
Format: in vivo
Conditions: 10 mg/kg

Structure (SMILES): CC#CCn1c(N2CCC[C@@H](N)C2)nc2c1c(=O)n(Cc1ncc3ccccc3n1)c(=O)n2C [2(80), 1-[(quinazolin-2-yl)methyl]-3-methyl-7-(2-butyn-1-yl)-8-((R)-3-amino-piperidin-1-yl)-xanthine]
- changes in the animals' behaviour: no changes in the animals' behaviour could be detected
